# According to patent US12590063B2, “Phenol derivative” (Sumitomo Pharma Co., Ltd., priority 2020, dated 2026):
# Counter-ions that a name gives are not always drawn. Like-named read-outs stand apart in the source and are kept apart here.
# Assays:
# [1] = molecular target: T1, Human TRPV1 (Homo sapiens, UniProt Q8NER1); experiment: Evaluation of agonistic properties using human TRPV1 transiently expressing cells; type: cell-based; details: for TRPV-1-agonistic activity (in words): evaluation test for TRPV-1-agonistic properties, summary of Tables 3 and 4
# T1 construct: the TRPV1 gene (GenBank NP_542435.2) had been inserted; expressed in transfected cells; host or cells: HEK293 cells (cat #CCL-82.2, ATCC), transient transfection with pcDNA3.1
# T1 sequence (Q8NER1 whole entry): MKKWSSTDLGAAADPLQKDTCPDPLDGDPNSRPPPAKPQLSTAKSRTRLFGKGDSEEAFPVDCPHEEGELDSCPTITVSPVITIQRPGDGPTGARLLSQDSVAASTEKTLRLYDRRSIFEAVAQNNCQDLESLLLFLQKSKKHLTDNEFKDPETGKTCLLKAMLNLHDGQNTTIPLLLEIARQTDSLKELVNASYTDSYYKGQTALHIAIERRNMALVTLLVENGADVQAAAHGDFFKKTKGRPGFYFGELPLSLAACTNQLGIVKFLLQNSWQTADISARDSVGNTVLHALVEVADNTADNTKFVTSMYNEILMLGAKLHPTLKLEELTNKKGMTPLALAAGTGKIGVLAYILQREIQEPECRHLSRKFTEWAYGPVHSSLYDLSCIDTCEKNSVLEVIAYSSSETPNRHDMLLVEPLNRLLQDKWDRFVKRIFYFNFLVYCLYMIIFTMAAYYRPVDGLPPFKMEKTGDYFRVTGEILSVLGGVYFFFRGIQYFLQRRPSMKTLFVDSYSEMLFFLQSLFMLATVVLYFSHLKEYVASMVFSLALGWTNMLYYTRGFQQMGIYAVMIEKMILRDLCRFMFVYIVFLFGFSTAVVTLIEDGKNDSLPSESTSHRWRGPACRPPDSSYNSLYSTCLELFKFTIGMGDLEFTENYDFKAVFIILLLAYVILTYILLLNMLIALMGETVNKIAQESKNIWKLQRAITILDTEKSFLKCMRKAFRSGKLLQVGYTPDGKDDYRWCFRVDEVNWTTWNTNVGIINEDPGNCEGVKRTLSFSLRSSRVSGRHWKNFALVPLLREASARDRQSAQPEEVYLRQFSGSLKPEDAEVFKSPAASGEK
# From the text: Test Example 1: Evaluation of Agonistic Properties Using Human TRPV1 Transiently Expressing Cells
# (1) Generation of Human TRPV1 Transiently Expressing Cells
# Human TRPV1 transiently expressing cells were generated and subjected to culture. Specifically, HEK293 cells (cat #CCL-82.2, ATCC) were used as host cells. Human TRPV1 and apoaequorin were transiently expressed by introducing the mammalian cell expression pcDNA3.1 vector (cat #v790-20, Invitrogen) into which the TRPV1 gene (GenBank NP_542435.2) had been inserted.
# The Dulbecco's Modified Eagle's Medium (DMEM) medium (cat #11550-043, Thermo Fisher Scientific) containing 10% inactivated fetal bovine serum (cat #10270-106, Thermo Fisher Scientific) was used as the medium, and the culture was carried out in tissue culture dishes (cat #3020-100, Iwaki). During the culture, cells were collected every 2 to 3 days by treating with PBS containing 10% 2.5 g/1-trypsin/[…] solution, phenol red (cat #32777-44, Nacalai Tesque), and passage culture was carried out.
# Three days after the passage, cells were collected with 10% trypsin-PBS treatment at a state of about 80% confluency, suspended in a DMEM medium containing 10% fetal bovine serum to 4000 cells/35 μl/well, and seeded into 384-well plates (cat #353962, FALCON).
# The day after seeding, Viviren (cat #E6492, Promega) was added (15 μl/well) to a final concentration of 4.5 μM/HBSS (cat #14065-056, Thermo Fisher Scientific)/90 mM HEPES (cat #17514-15, Nacalai Tesque)/0.1% BSA (cat #01281-84, Nacalai Tesque), and after centrifugation, the samples were allowed to stand at room temperature for 2 hours under light-shielded conditions.
# (2) Preparation of Test Compounds
# For the test compounds, dimethyl sulfoxide solutions were produced at a concentration 1000 times the final concentration, and from these solutions, solutions at concentration 10 times the final concentration were prepared with Hanks/20 mmol/L HEPES/0.10% BSA (cat #01281-84, Nacalai Tesque).
# (3) Evaluation of TRPV1-Agonistic Properties
# FDSS7000 (Hamamatsu Photonics K.K.) was used for detection of TRPV1 agonist-stimulated luminescence signals. The test compounds were added to plates to which the cells and luminescent substrates had been added. The luminescence signals (center wavelength: 465 nm) after addition of the test compounds were measured, and the Rlu (Max−Min) was calculated.
# [2] = Evaluation test for metabolic stability to S9; type: in vitro ADME; details: liver S9 fraction, 37° C., 15 minutes, final compound concentration 10 nM
# Experimental: Test Example 4: Evaluation Test for Metabolic Stability to S9
# The compounds were added to a reaction solution in which the liver S9 fraction was diluted with phosphate buffer, and incubation was initiated at 37° C. (final compound concentration 10 nM, final volume 300 μL). After incubation for 15 minutes, the reaction was stopped by adding the reaction solution to acetonitrile, and centrifugation was carried out. After filtering the supernatant through a filter, the amount of compounds was determined using LC/MS/MS. From the amount of compounds obtained, the residual rate 15 minutes after the initiation of the reaction was calculated relative to the amount of compounds before the initiation of the reaction (0 minutes).
# [3] = HEK293 cells transiently expressing human TRPV1 and apoaequorin, luminescence signal Rlu (Max-Min), read-out: TRPV1 EC50
SMILES,"EC50 [1, 3] [nM]",Residual rate (%) [2] [%],EC50 [1] [nM],TRPV-1-agonistic activity (in words) [1]
"COc1cc(CC(=O)Nc2cccc([C@H]3CC[C@@H](OC(=O)CC4CCOCC4)CC3)c2)ccc1O [Example 11, cis-4-{3-[2-(4-hydroxy-3-methoxyphenyl)acetamido]phenyl}cyclohexyl (oxa-4-yl)acetate]",21.3,91,–,–
"COc1cc(CC(=O)Nc2cccc(-c3cccc(OC(=O)Cc4ccccc4)c3)c2)ccc1O [Example 18, 3′-[2-(4-hydroxy-3-methoxyphenyl)acetamido][1,1′-biphenyl]-3-yl phenylacetate]",–,<1,5.4,–
"COc1cc(CC(=O)Nc2cccc([C@H]3CC[C@@H](OC(=O)Cc4ccc(F)cc4)CC3)c2)ccc1O [Example 8, cis-4-{3-[2-(4-hydroxy-3-methoxyphenyl)acetamido]phenyl}cyclohexyl (4-fluorophenyl)acetate]",6.1,89,–,–
"COc1cc(CC(=O)Nc2cccc(-c3cccc(OC(=O)Cc4ccccc4F)c3)c2)ccc1O [Example 28, 3′-[2-(4-hydroxy-3-methoxyphenyl)acetamido][1,1′-biphenyl]-3-yl (2-fluorophenyl)acetate]",8.8,<1,–,–
"COc1cc(CC(=O)Nc2cccc([C@H]3CC[C@@H](OC(=O)Cc4cc(F)cc(F)c4)CC3)c2)ccc1O [Example 7, cis-4-{3-[2-(4-hydroxy-3-methoxyphenyl)acetamido]phenyl}cyclohexyl (3,5-difluorophenyl)acetate]",5.6,100,–,–
"COc1cc(CC(=O)Nc2ccc(F)c(-c3cccc(OC(=O)C(C)C)c3)c2)ccc1O [Example 19, 2′-fluoro-5′-[2-(4-hydroxy-3-methoxyphenyl)acetamido][1,1′-biphenyl]-3-yl 2-methylpropanoate]",2.7,<1,–,stronger TRPV-1-agonistic activity
"COc1cc(CC(=O)Nc2ccnc(-c3cccc(OC(=O)C4CCCCC4)c3)c2)ccc1O [Example 33, 3-{4-[2-(4-hydroxy-3-methoxyphenyl)acetamido]pyridin-2-yl}phenyl cyclohexanecarboxylate hydrochloride]",12.5,<1,–,–
"COc1cc(CNC(=O)c2cccc(-c3cccc(OC(=O)CC4CCCCC4)c3)c2)ccc1O [Example 45, 3′-{[(4-hydroxy-3-methoxyphenyl)methyl]carbamoyl}[1,1′-biphenyl]-3-yl cyclohexylacetate]",31.3,<1,–,–
"COc1cc(CC(=O)Nc2cccc([C@H]3CC[C@@H](OC(=O)Cc4ccc(Cl)cc4)CC3)c2)ccc1O [Example 14, cis-4-{3-[2-(4-hydroxy-3-methoxyphenyl)acetamido]phenyl}cyclohexyl (4-chlorophenyl)acetate]",6.3,11,–,–
"COc1cc(CNC(=O)c2cccc(-c3cccc(OC(=O)C(C)C)c3)c2)ccc1O [Example 44, 3′-1{[(4-hydroxy-3-methoxyphenyl)methyl]carbamoyl}[1,1′-biphenyl]-3-yl 2-methylpropanoate]",10.2,<1,–,–
"COc1cc(CC(=O)Nc2ccnc(-c3cccc(OC(=O)CC4CCCCC4)c3)c2)ccc1O [Example 31, 3-{4-[2-(4-hydroxy-3-methoxyphenyl)acetamido]pyridin-2-yl}phenyl cyclohexylacetate]",14.9,<1,–,–
"COc1cc(CC(=O)Nc2cccc(-c3cccc(OC(=O)C(C)C)c3)c2)ccc1O [Example 24, 3′-[2-(4-hydroxy-3-methoxyphenyl)acetamido][1,1′-biphenyl]-3-yl 2-methylpropanoate]",3.9,<1,–,stronger TRPV-1-agonistic activity
